As a reminder, the GI50 is the concentration giving 50% growth inhibition.

Data on eleven molecules can be found in ChEMBL document CHEMBL1201862, “PubChem BioAssay data set” (2004).

Assay in all cases: DTP human tumour cell line panel, 48 h
Assay [1] concerns Malme-3M.
The subject of assay [2] is BT-549.
Assay [3] relates to SW-620.
For assay [4], the system named is PC-3.
Assay [5] has as its system M14.
Assay [6] concerns CCRF-CEM.
Assay [7] relates to SK-MEL-5.
In assay [8] the test system is UACC-257.
The test system of assay [9] is CAKI-1.
Assay [10] deals with NCI-H522.
Assay [11] deals with IGROV-1.
Assay [12] relates to HCT-116.
Assay [13] relates to OVCAR-3.
The subject of assay [14] is SF-295.
Assay [15] deals with SNB-19.
The test system of assay [16] is SF-539.
The test system of assay [17] is SK-OV-3.
Assay [18] relates to UO-31.
In assay [19] the test system is EKVX.
In assay [20] the test system is HCC 2998.

Structures are written as SMILES.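 In this assay, cells in 96-well plates receive the compound at five concentrations for 48 hours. Endpoints are linearly interpolated between the surrounding concentrations. GI50 = concentration required for 50% inhibition of growth.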 The source made the active and inactive calls. Rule as the data show it: active = GI50 up to about 1.1 µM and inactive = higher.

In the case of `Cc1c(NC(=S)NN)c(=O)n(-c2ccccc2)n1C`, the GI50 in assay [1] was 32.3 µM (inactive); in [2] it was > 100 µM (inactive); in [3], > 100 µM (inactive); in [4] it was > 100 µM (inactive); in assay [5], > 100 µM (inactive); in [6], > 100 µM (inactive). Also, the GI50 in [7] was > 100 µM (inactive); in assay [8], > 100 µM (inactive); in assay [9] it was > 100 µM (inactive); in [10], 0.637 µM (active); in [11], > 100 µM (inactive); in assay [12], > 100 µM (inactive). Moreover, the GI50 in assay [13], in [14], in [15], in assay [16], in assay [17] and in assay [18] was > 100 µM (inactive) in each case. In assay [19], the GI50 is > 100 µM (inactive).

For `Cc1ccc(S(=O)(=O)NC(=O)Nc2ccc(C(=O)O)cc2)cc1`, the GI50 in assay [1], in assay [2], in assay [3], in assay [4], in assay [5] and in [6] was > 100 µM (inactive) throughout. For the same molecule, the GI50 in assay [7], in assay [8], in assay [10], in assay [11], in [12] and in [14] was > 100 µM (inactive) in each case. Besides, the GI50 in assay [15], in assay [16], in [17] and in [18] was > 100 µM (inactive) in each case.

For the molecule `NCCSc1nc2ccccc2s1`, the GI50 in assay [1] was 50.8 µM (inactive); in assay [2] it was 31.5 µM (inactive); in [3], 32.1 µM (inactive); in assay [4], 44 µM (inactive); in [5], 33.7 µM (inactive); in [6] it was 26.3 µM (inactive). The GI50 in assay [7] was 52.7 µM (inactive); in assay [8], 47 µM (inactive); in assay [9] it was 38.5 µM (inactive); in assay [10] it was 28.1 µM (inactive); in assay [11], 41.5 µM (inactive); in [12], 33.7 µM (inactive). The GI50 is 38.6 µM (inactive) in assay [13]; 23.4 µM (inactive) in assay [14]; 64.7 µM (inactive) in assay [15]; 17.3 µM (inactive) in assay [16]; 32.1 µM (inactive) in assay [17]; 43.8 µM (inactive) in assay [18]. In [19], the GI50 is 34.4 µM (inactive).

For `N/C(=N\Nc1nc2cc([N+](=O)[O-])ccc2o1)c1ccccn1`, the GI50 is 0.401 µM (active) in [1]; 0.335 µM (active) in [2]; 0.113 µM (active) in [3]; 0.122 µM (active) in [4]; 0.144 µM (active) in assay [5]; < 0.0223 µM (active) in assay [6]. Besides, the 50% growth inhibitory concentration (GI50) in assay [7] is 0.157 µM (active); in assay [8], 0.0929 µM (active); in [9], 0.16 µM (active); in assay [10] it was 0.043 µM (active); in assay [11] it was 0.147 µM (active); in [12] it was 0.0369 µM (active). In addition, the concentration for 50% growth inhibition (GI50) in assay [13] is 0.0422 µM (active); in [14] it was 0.207 µM (active); in [15], 0.506 µM (active); in [16], 0.124 µM (active); in [17] it was 0.403 µM (active); in assay [19], 0.0257 µM (active).

Consider `CC1=C[P+](c2ccccc2)(c2ccccc2)c2ccccc2O1`, for which the GI50 in assay [1] is 4.71 µM (inactive); in [2], 10 µM (inactive); in assay [3], 5.86 µM (inactive); in assay [4], 3.32 µM (inactive); in [5], 3.39 µM (inactive); in assay [7] it was 2.81 µM (inactive). For the same molecule, the GI50 in assay [8] is 2.79 µM (inactive); in assay [9] it was 23.5 µM (inactive); in [10] it was 3.25 µM (inactive); in [11] it was 5.28 µM (inactive); in [12] it was 3.71 µM (inactive); in assay [13] it was 1.14 µM (inactive). The GI50 in assay [14] was 13 µM (inactive); in [15] it was 7.11 µM (inactive); in [16] it was 7.89 µM (inactive); in assay [17], 25 µM (inactive); in assay [18], > 100 µM (inactive); in assay [19], 16.7 µM (inactive).

Turning to `C/C(=N\NS(=O)(=O)c1ccc(C)cc1)P(=O)(O)O`, the GI50 in assay [1], in assay [2], in assay [3], in assay [4], in assay [5] and in [7] was > 100 µM (inactive) throughout. Moreover, the GI50 in assay [8], in [9], in assay [10], in [11], in [12] and in assay [13] was > 100 µM (inactive) throughout. In addition, the GI50 in assay [14], in assay [15], in [16], in assay [17], in assay [18] and in assay [19] was > 100 µM (inactive) each time.

Turning to `COc1ccc2[nH]cc(CCNC(=O)[C@H](Cc3ccccc3)NC(=O)[C@@H](NCC(F)(F)F)C(C)C)c2c1`, the GI50 in assay [1] is 21.6 µM (inactive); in assay [2], 21.4 µM (inactive); in assay [3] it was 28.5 µM (inactive); in assay [4], 18.2 µM (inactive); in [5] it was 17.7 µM (inactive); in [6] it was 0.809 µM (active). The GI50 in assay [8] was 19.7 µM (inactive); in assay [10] it was 16.7 µM (inactive); in assay [11], 21.2 µM (inactive); in [12] it was 16.5 µM (inactive); in assay [13], 15.6 µM (inactive); in assay [14] it was 11.2 µM (inactive). Also, the GI50 in assay [15] was 28.6 µM (inactive); in [16], 19 µM (inactive); in [17] it was 18.2 µM (inactive); in [18] it was 22.9 µM (inactive); in assay [19] it was 17.4 µM (inactive).

In the case of `C/C=C1\CC(C(=O)OCC)CCCCCCC1=O` (configuration not stated), the GI50 in assay [1] was > 100 µM (inactive); in assay [2], > 100 µM (inactive); in [3], > 100 µM (inactive); in assay [4], > 100 µM (inactive); in assay [5], > 100 µM (inactive); in assay [6] it was 19.1 µM (inactive). In addition, the GI50 in assay [7] is > 100 µM (inactive); in assay [8] it was > 100 µM (inactive); in assay [9] it was > 100 µM (inactive); in assay [10], 99.8 µM (inactive); in [11], > 100 µM (inactive); in assay [12], > 100 µM (inactive). Further, the GI50 in assay [14], in assay [15], in [16], in assay [17], in [18] and in assay [19] was > 100 µM (inactive) throughout.

Take `C[N+](C)(CCNC(=O)c1cccc2cc3ccccc3nc12)Cc1ccc([N+](=O)[O-])s1`: the GI50 in [1], in assay [2], in assay [3], in assay [4], in assay [5] and in assay [6] was > 25 µM (inactive) in each case. Further, the GI50 in [7] is > 25 µM (inactive); in assay [8], > 25 µM (inactive); in assay [9], 14.9 µM (inactive); in assay [10] it was > 25 µM (inactive); in assay [11], > 25 µM (inactive); in assay [12] it was > 25 µM (inactive). For the same molecule, the GI50 in assay [13], in assay [14], in assay [17], in assay [18] and in [19] was > 25 µM (inactive) each time.

As to `COc1ccc(NC(C)=O)c(C(=O)CCNC(C)=O)c1`, the GI50 in assay [2], in [3], in assay [4], in assay [5], in [6] and in assay [7] was > 100 µM (inactive) throughout. In addition, the GI50 in assay [8], in assay [9], in [10], in [11], in assay [12] and in assay [13] was > 100 µM (inactive) in each case. For the same molecule, the GI50 in assay [14], in assay [15], in assay [16], in [17], in assay [18] and in assay [19] was > 100 µM (inactive) in each case.

For `CCNC(=S)N/N=C1\C(=O)Nc2ccc([N+](=O)[O-])cc21`, the GI50 in assay [1] was 57.8 µM (inactive); in assay [2], > 100 µM (inactive); in assay [3] it was 50.2 µM (inactive); in assay [4] it was 97.5 µM (inactive); in [20] it was 24.9 µM (inactive); in assay [5], 46.7 µM (inactive). In addition, the GI50 is 7.06 µM (inactive) in [6]; 35.1 µM (inactive) in assay [7]; 53.5 µM (inactive) in assay [8]; 11.9 µM (inactive) in assay [9]; 31.6 µM (inactive) in assay [11]; 27.7 µM (inactive) in [12]. The GI50 is 40.4 µM (inactive) in [13]; 29.3 µM (inactive) in assay [14]; 45.4 µM (inactive) in [15]; 30.2 µM (inactive) in assay [16]; 39.4 µM (inactive) in [17]; 25.8 µM (inactive) in assay [18]. Besides, in assay [19], the GI50 was 50.5 µM (inactive).
